For 8 compounds, Activity, MIC and IC50 results are on record in ChEMBL document CHEMBL2417415, “Polyketides with New Delhi metallo-β-lactamase 1 inhibitory activity from Penicillium sp” (J Nat Prod, 2013).

The structures appear in SMILES notation. Converted amounts (≈) assume the structure as drawn. The source made the active and inactive calls. The rule behind the calls is not given here.

The subject of the first experiment is A549. Description: Cytotoxicity assay against human A549 cells at 10 uM after 96 hrs by MTT assay.
Conditions: not given
Type of experiment: functional, cell-based. A general note: Tetrazolium assays rely on reduction of a dye to a coloured formazan, in cell work by metabolically active cells.
Consider `O=C(O)C[C@H](NC(=O)c1cc(=O)[nH]c2ccccc12)C(=O)O`, for which the result was inactive.
Take `CC(=O)C[C@H](O)c1coc2cc(O)cc(C(=O)O)c2c1=O`: the result was inactive.
Same read-out and setting: the result for `COc1c(O)cc2oc3cc(C)ncc3c(=O)c2c1C(=O)O` reads “inactive”.
On to `C[C@H]1C[C@@H](O)[C@@H]2O[C@@H]2[C@H]1O`, for which the result was inactive.

The next experiment concerns Bel-7402. Description: Cytotoxicity assay against human Bel7402 cells at 10 uM after 96 hrs by MTT assay. The format is functional, cell-based.
Conditions: not given
Take `O=C(O)C[C@H](NC(=O)c1cc(=O)[nH]c2ccccc12)C(=O)O`: the result was inactive.
For `CC(=O)C[C@H](O)c1coc2cc(O)cc(C(=O)O)c2c1=O`, the result was inactive.
Regarding `COc1c(O)cc2oc3cc(C)ncc3c(=O)c2c1C(=O)O`, the outcome was inactive.
Consider `C[C@H]1C[C@@H](O)[C@@H]2O[C@@H]2[C@H]1O`, for which the outcome was inactive.

In a further experiment the test system is BGC-823. Description: Cytotoxicity assay against human BGC823 cells at 10 uM after 96 hrs by MTT assay. Type of experiment: functional, cell-based.
Conditions: not given
Regarding `O=C(O)C[C@H](NC(=O)c1cc(=O)[nH]c2ccccc12)C(=O)O`, the result was inactive.
Turning to `CC(=O)C[C@H](O)c1coc2cc(O)cc(C(=O)O)c2c1=O`, the outcome was inactive.
Regarding `COc1c(O)cc2oc3cc(C)ncc3c(=O)c2c1C(=O)O`, the result was inactive.
Take `C[C@H]1C[C@@H](O)[C@@H]2O[C@@H]2[C@H]1O`: the result was inactive.

Another experiment concerns Klebsiella pneumoniae. Description: Antibacterial activity against Klebsiella pneumoniae ATCC BAA-2146 after 24 hrs by spectrophotometry. The format is functional. The conditions noted are these: ATCC BAA-2146, 24 h.
Broadly, the MIC is the lowest concentration found to suppress growth. Low values mean inhibition by little substance, high ones a need for much substance. `C[C@@H](O)[C@H]1C(=O)N2C(C(=O)O)=C(S[C@@H]3CN[C@H](C(=O)N(C)C)C3)[C@H](C)[C@H]12` [MEROPENEM]: the MIC turned out to be 128 µg/mL (≈ 334 µM).

A further experiment concerns Klebsiella pneumoniae. Description: Antibacterial activity against Klebsiella pneumoniae ATCC BAA-2146 assessed as reduction in meropenem MIC at 128 ug/mL after 24 hrs by spectrophotometry.
Conditions: not given
The format is functional, organism-based.
For `CC(=O)C[C@H](O)c1coc2cc(O)cc(C(=O)O)c2c1=O`, the result was inactive.
`COc1c(O)cc2oc3cc(C)ncc3c(=O)c2c1C(=O)O`: the outcome was inactive.

In another experiment the test system is HCT-8. Description: Cytotoxicity assay against human HCT8 cells at 10 uM after 96 hrs by MTT assay. Type of experiment: functional, cell-based.
Conditions: not given
As for `O=C(O)C[C@H](NC(=O)c1cc(=O)[nH]c2ccccc12)C(=O)O`, the outcome was inactive.
Regarding `CC(=O)C[C@H](O)c1coc2cc(O)cc(C(=O)O)c2c1=O`, the result was inactive.
The same measure, in the same setting: the same measure for `COc1c(O)cc2oc3cc(C)ncc3c(=O)c2c1C(=O)O`: “inactive”; for `C[C@H]1C[C@@H](O)[C@@H]2O[C@@H]2[C@H]1O`: “inactive”.

The next experiment deals with KETR3. As to the kind of experiment: Cytotoxicity assay against human Ketr3 cells at 10 uM after 96 hrs by MTT assay. Type of experiment: functional, cell-based.
Conditions: not given
`O=C(O)C[C@H](NC(=O)c1cc(=O)[nH]c2ccccc12)C(=O)O`: the result was inactive.
Turning to `CC(=O)C[C@H](O)c1coc2cc(O)cc(C(=O)O)c2c1=O`, the outcome was inactive.
On to `COc1c(O)cc2oc3cc(C)ncc3c(=O)c2c1C(=O)O`, for which the outcome was inactive.
The same measure, in the same setting: the same measure for `C[C@H]1C[C@@H](O)[C@@H]2O[C@@H]2[C@H]1O`: “inactive”.

The subject of another experiment is MCF7. Description: Cytotoxicity assay against human MCF7 cells at 10 uM after 96 hrs by MTT assay. The format is functional, cell-based.
Conditions: not given
`O=C(O)C[C@H](NC(=O)c1cc(=O)[nH]c2ccccc12)C(=O)O`: the result was inactive.
For `CC(=O)C[C@H](O)c1coc2cc(O)cc(C(=O)O)c2c1=O`, the result was inactive.
Regarding `COc1c(O)cc2oc3cc(C)ncc3c(=O)c2c1C(=O)O`, the outcome was inactive.
On the same count and under the same terms, the result for `C[C@H]1C[C@@H](O)[C@@H]2O[C@@H]2[C@H]1O` reads “inactive”.

The subject of the next experiment is Klebsiella pneumoniae. As to the kind of experiment: Antibacterial activity against Klebsiella pneumoniae ATCC BAA-2146 at 10 uM after 24 hrs by spectrophotometry.
Conditions: not given
The format is functional, organism-based.
As for `O=C(O)C[C@H](NC(=O)c1cc(=O)[nH]c2ccccc12)C(=O)O`, the outcome was inactive.
On to `CC(=O)C[C@H](O)c1coc2cc(O)cc(C(=O)O)c2c1=O`, for which the outcome was inactive.
For `COc1c(O)cc2oc3cc(C)ncc3c(=O)c2c1C(=O)O`, the result was inactive.
On the same count and under the same terms, the same measure for `C[C@H]1C[C@@H](O)[C@@H]2O[C@@H]2[C@H]1O`: “inactive”.

A further experiment deals with Influenza A virus. Description: Antiviral activity against influenza A virus A/Hanfang/359/95 (H3N2) infected in MDCK cells at 10 uM by Reed and Muench analysis.
Conditions: not given
Type of experiment: functional, organism-based.
`O=C(O)C[C@H](NC(=O)c1cc(=O)[nH]c2ccccc12)C(=O)O`: the result was inactive.
Take `CC(=O)C[C@H](O)c1coc2cc(O)cc(C(=O)O)c2c1=O`: the result was inactive.
`COc1c(O)cc2oc3cc(C)ncc3c(=O)c2c1C(=O)O`: the result was inactive.
With `C[C@H]1C[C@@H](O)[C@@H]2O[C@@H]2[C@H]1O`, the result was inactive.

System in another experiment: not listed separately
Description: Inhibition of NDM-1 (unknown origin) expressed in Escherichia coli BL21 using meropenem as substrate compound preincubated for 15 min by spectrophotometry.
Conditions: not given
For orientation: IC50 means the concentration at which inhibition is half-maximal. `C[C@H](CS)C(=O)N1CCC[C@H]1C(=O)O` [CAPTOPRIL] showed an IC50 of 108 µM.
The same measure, in the same setting: the same measure for `CC(=O)C[C@H](O)c1coc2cc(O)cc(C(=O)O)c2c1=O`: 94.9 µM; for `COc1c(O)cc2oc3cc(C)ncc3c(=O)c2c1C(=O)O`: 87.9 µM.
Consider `O=C(O)CN(CCN(CC(=O)O)CC(=O)O)CC(=O)O` [EDETIC ACID], for which the IC50 was < 0.1 µM.
In the case of `C[C@H](CS)C(=O)N1CCC[C@@H]1C(=O)O` [D-CAPTOPRIL], half-maximal inhibition (IC50) required 8 µM.

Another experiment concerns Influenza A virus. Description: Antiviral activity against influenza A virus A/FM/1/47 (H1N1) infected in MDCK cells at 10 uM by Reed and Muench analysis. The format is functional, organism-based.
Conditions: not given
Turning to `O=C(O)C[C@H](NC(=O)c1cc(=O)[nH]c2ccccc12)C(=O)O`, the outcome was inactive.
Take `CC(=O)C[C@H](O)c1coc2cc(O)cc(C(=O)O)c2c1=O`: the result was inactive.
Same read-out and setting: the result for `COc1c(O)cc2oc3cc(C)ncc3c(=O)c2c1C(=O)O` reads “inactive”.
As for `C[C@H]1C[C@@H](O)[C@@H]2O[C@@H]2[C@H]1O`, the outcome was inactive.

The test system of another experiment is Klebsiella pneumoniae. Description: Antibacterial activity against Klebsiella pneumoniae ATCC BAA-2146 at 256 ug/mL after 24 hrs by spectrophotometry. The format is functional, organism-based.
Conditions: not given
On to `CC(=O)C[C@H](O)c1coc2cc(O)cc(C(=O)O)c2c1=O`, for which the outcome was inactive.
For `COc1c(O)cc2oc3cc(C)ncc3c(=O)c2c1C(=O)O`, the result was inactive.

The next experiment relates to Coxsackievirus B3. As to the kind of experiment: Antiviral activity against Coxsackievirus B3 at 10 uM. Type of experiment: functional, organism-based.
Conditions: not given
For `O=C(O)C[C@H](NC(=O)c1cc(=O)[nH]c2ccccc12)C(=O)O`, the outcome was inactive.
As to `CC(=O)C[C@H](O)c1coc2cc(O)cc(C(=O)O)c2c1=O`, the outcome was inactive.
For `COc1c(O)cc2oc3cc(C)ncc3c(=O)c2c1C(=O)O`, the outcome was inactive.
On the same count and under the same terms, the same measure for `C[C@H]1C[C@@H](O)[C@@H]2O[C@@H]2[C@H]1O`: “inactive”.
